Literature values as cited in patent US20060153907A1, “Liposome formulations of boronic acid compounds” (priority 2004, published 2006).

Test system: tumor lines
Details: NCI in vitro screen

## CC(C)C[C@H](NC(=O)[C@H](Cc1ccccc1)NC(=O)c1cnccn1)B(O)O [bortezomib]
  cytotoxicity against a range of tumor lines: showed cytotoxicity
